Data as given in patent US20230203126A1, “A COMPOSITION COMPRISING S-ARRESTIN PEPTIDES” (WORG PHARMACEUTICALS (HANGZHOU) CO., LTD., priority 2019, published 2023).
No end group written: not given here.

What was measured:
[1] = system: MHC II molecules on dendritic cells (CD11c+ cells); assay: In vivo MHC class II loading assay (DR3tg mice); set-up: species or system HLA-DR3-transgenic mice; conditions: 100 µg peptide s.c., spleen 2 h post injection, 72 h co-culture, vs PBS-injected control
Procedure: FIG. 2: Peptide 17JK is correctly loaded on MHC class II in vivo. Response of peptide-specific CD4+ T cells towards peptide loaded in vivo on dendritic cells is shown. HLA-DR3-transgenic mice were injected subcutaneously with 100 µg of 17JK peptide. 2 h post injection, spleens were dissected and CD11c+ cells (dendritic cells) were isolated. These CD11c+ cells were co-cultured with peptide-specific CD4+ cells for 72 h at 37° C. IFNy was measured in the supernatant of these cultures to evaluate the response to peptide by the CD4+ T cells. (*** p<0.001 Mann-Whitney U-test)
FIG. 3: Peptide 15N3K is correctly loaded on MHC class II in vivo. […] IFNy was measured in the supernatant of these cultures to evaluate the response to peptide by the CD4+ T cells. […]
When 100 µg of peptide 9K1K was injected in DR2tg mice or when peptide 17JK or 15N3K was injected in DR3tg mice, these peptides could be detected on dendritic cells (CD11c+ cells) in the spleens of these mice 2 h post injection. Activation (IFNY production) of peptide-specific CD4+ T cells by the isolated CD11 c+ cells was used as a read-out. […]
DR3tg or DR2tg mice were injected with 100 µg of peptide in 100 µl PBS subcutaneously (s.c.) in the flank. […] After 72 hours, supernatant of these co-cultures was collected and CD4+ T cell activation was analysed by IFNy ELISA (R&D Systems, Abingdon, UK). […]

[2] = molecular target: HLA-DRA1*0101, DRB1*0101 (DR1) (Homo sapiens, UniProt P01903+P01911, A100R/D57E/F55L/F60I/F76Y/I96L/L162R/M171V/P40L/Q125E/R42F/V115G/Y59C); assay: DR1
Procedure: (§1) Table printed on a drawing sheet, Figure 9
(§2) The patent's description of the figure: FIG. 9: Diverse patterns of in vitro peptide-MHC II binding for peptides 9K1, 17JK and 15N3K. Binding of peptides 9K1, 17JK and 15N3K to recombinant HLA-DRA1*0101, DRB1*0101 (DR1), DRB1*1501 (DR2), DRB1*0301 (DR3), DRB1*0401 (DR4), DRB1*1101 (DR11), DRB1*0405 (DR4*05) and DRB1*0901 (DR9) was assessed in vitro. IC50 values (µM) are presented and colour-coded per HLA-DR molecule. Low values (green) indicate strong binding, high values (red) indicate low(er) binding.
(§3) FIG. 9 depicts IC50 (µM) values of peptides 9K1K, 17JK and 15N3K binding to the indicated HLA-DR molecules and competing with a known competitor peptide. Values should be compared only within each HLA-DR molecule. Low IC50 values (green) indicate the strongest binder per HLA-DR molecule. Highest values per HLA-DR molecule (red) are indicative of the lowest binder for that HLA-DR molecule. Intermediate values are indicated in orange. […]
(§4) First copying reader's note: The sheet prints no unit; per the patent description the values are IC50 (µM) for peptide binding to the named HLA-DR molecules, with cell shading coding relative binding strength per HLA-DR molecule.
Where the first naming reader finds the target: description_of_the_figure: recombinant HLA-DRA1*0101, DRB1*0101 (DR1)

[3] = molecular target: HLA-DRA1*0101, DRB1*0405 (DR4*05) (Homo sapiens, UniProt P01903+P01911, A100R/A169T/D86S/F76Y/I96L/K127E/L162R/M171V/N62H/P40V/Q125Y/R42H/S133A/S149N/S66Y/V115G/V209L/W38E); assay: DR4*05
Procedure: as §1
Head of the field: DR4*05
as §2
FIG. 9 depicts IC50 (µM) values of peptides 9K1K, 17JK and 15N3K binding to the indicated HLA-DR molecules and competing with a known competitor peptide. Values should be compared only within each HLA-DR molecule. Low IC50 values (green) indicate the strongest binder per HLA-DR molecule. Highest values per HLA-DR molecule (red) are indicative of the lowest binder for that HLA-DR molecule. Intermediate values are indicated in orange. […] So, combining the peptides into a cocktail treatment, makes the treatment less restricted to a certain HLA-DR type.
as §4

[4] = molecular target: HLA-DRA1*0101, DRB1*1101 (DR11) (Homo sapiens, UniProt P01903+P01911, A100R/A169T/A87E/I96F/K41T/L162R/M171V/P40S/Q125H/Q178H/Q39Y/Q99D/R42S/S66Y/T262R/V115G/W38E); assay: DR11
Sequence of HLA-DRA1*0101, DRB1*1101 (DR11) (P01903 26-254 limits assumed, other chains not shown): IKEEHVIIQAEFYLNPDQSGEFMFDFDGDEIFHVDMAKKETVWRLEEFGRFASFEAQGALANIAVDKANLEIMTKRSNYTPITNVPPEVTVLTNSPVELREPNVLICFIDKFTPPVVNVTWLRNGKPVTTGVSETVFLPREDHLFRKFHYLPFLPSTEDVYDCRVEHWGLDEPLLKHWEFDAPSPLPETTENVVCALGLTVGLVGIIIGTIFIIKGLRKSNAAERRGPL
Procedure: as §1, §2, §3, §4
Where the first naming reader finds the target: description_of_the_figure: recombinant HLA-DRA1*0101, DRB1*0101 (DR1), DRB1*1501 (DR2), DRB1*0301 (DR3), DRB1*0401 (DR4), DRB1*1101 (DR11)

Substance	CD4+ T cell activation (IFNy) by CD11c+ cells isolated from spleen of injected mice [1]	IC50 [2] [nM]	IC50 [3] [µM]	IC50 [4] [nM]
KKKLTFRRDLYFSRVQVYKKK-NH2 [17JK]	significant CD4+ T cell activation	2160	17.3	880
KKKVIFKKISRDKSVTIYLGKKK-NH2 [15N3K]	significant CD4+ T cell activation	–	–	–
